Measured values: patent publication US20240270762A1, “PENICILLIN-BINDING PROTEIN INHIBITORS” (priority 2021, published 2024)
Converted amounts (≈) assume the structure as drawn. Like-named read-outs stand apart in the source and are kept apart here.

Legend:
[1] = test system: P. aeruginosa (ΔmexAB-oprM); test: Broth microdilution MIC in CAMHB; assay type: cell-based; conditions: Pseudomonas aeruginosa; read-out: MIC P. aeruginosa ΔmexAB-oprM
E. coli ATCC 25922 = test: microbe, parasite or virus in culture; assay type: cell-based; conditions: Escherichia coli, ATCC25922, read-out: MIC E. coli 25922
N. gonorrhoeae CDC-0197 = test: Liquid broth MIC in Fastidious broth; conditions: Neisseria gonorrhoeae
N. gonorrhoeae MS11 = test: Liquid broth MIC in Fastidious broth; conditions: Neisseria gonorrhoeae
K. pneumoniae 848844 = test: microbe, parasite or virus in culture; assay type: cell-based; conditions: Klebsiella pneumoniae, 848844, read-out: MIC K. pneumoniae 848844
E. coli 901C = test: microbe, parasite or virus in culture; assay type: cell-based; conditions: Escherichia coli, read-out: MIC E. coli 901C
A. baumannii PBP1a = biological target: T1, A. baumannii PBP1a (Acinetobacter baumannii, UniProt A0ABX6CK30); test: Bocillin-FL competition binding via gel filtration, A. baumannii PBP1a; conditions: competition binding assay using Bocillin-FL via gel filtration; read-out: A. baumannii PBP1a Potency
T1 sequence (A0ABX6CK30 1-851): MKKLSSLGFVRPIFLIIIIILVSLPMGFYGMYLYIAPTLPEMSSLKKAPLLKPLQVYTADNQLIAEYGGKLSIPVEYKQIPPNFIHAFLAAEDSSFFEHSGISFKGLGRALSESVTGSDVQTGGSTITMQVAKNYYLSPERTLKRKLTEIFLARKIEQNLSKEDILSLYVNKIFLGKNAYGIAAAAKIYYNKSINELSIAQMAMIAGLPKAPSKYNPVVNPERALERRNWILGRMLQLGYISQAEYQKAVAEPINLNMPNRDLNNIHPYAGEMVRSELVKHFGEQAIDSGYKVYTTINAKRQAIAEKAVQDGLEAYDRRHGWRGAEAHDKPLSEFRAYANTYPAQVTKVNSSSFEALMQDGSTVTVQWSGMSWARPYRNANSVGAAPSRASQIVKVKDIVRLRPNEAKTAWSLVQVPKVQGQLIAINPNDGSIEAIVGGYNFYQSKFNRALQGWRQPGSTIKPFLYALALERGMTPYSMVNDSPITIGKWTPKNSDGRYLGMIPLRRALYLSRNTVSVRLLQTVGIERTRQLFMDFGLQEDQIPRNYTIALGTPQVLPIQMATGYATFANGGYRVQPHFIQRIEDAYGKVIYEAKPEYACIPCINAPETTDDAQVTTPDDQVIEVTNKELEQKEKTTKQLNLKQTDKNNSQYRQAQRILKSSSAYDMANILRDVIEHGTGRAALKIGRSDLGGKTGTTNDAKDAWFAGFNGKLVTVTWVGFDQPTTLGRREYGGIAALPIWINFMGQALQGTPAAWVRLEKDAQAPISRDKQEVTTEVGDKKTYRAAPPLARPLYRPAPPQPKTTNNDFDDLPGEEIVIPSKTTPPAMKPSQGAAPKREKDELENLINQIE
Method in brief: (§1)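 Competitive equilibrium binding with Bocillin-FL reporter: PBP pre-incubated with inhibitor dilutions, Bocillin-FL added, 15 min incubation. Labelled enzyme isolated by size-exclusion spin plates, fluorescence measured; EC50 obtained by fitting bound fraction against inhibitor concentration with a Hill-coefficient model.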

P. aeruginosa CDC-0110 = test: microbe, parasite or virus in culture; assay type: cell-based; conditions: Pseudomonas aeruginosa, CDC0110, read-out: Minimum inhibitory concentration, P. aeruginosa CDC-0110
[2] = test system: B. thailandensis ATCC 700388; test: microbe, parasite or virus in culture; assay type: cell-based; conditions: Burkholderia thailandensis, ATCC700388, read-out: Minimum inhibitory concentration (MIC), B. thailandensis ATCC 700388
A. baumannii CDC-0083 = test: microbe, parasite or virus in culture; assay type: cell-based; conditions: Acinetobacter baumannii, CDC0083, read-out: MIC, A. baumannii CDC-0083
[3] = test system: B. humptydooensis ATCC BAA-2767; test: microbe, parasite or virus in culture; assay type: cell-based; conditions: Burkholderia humptydooensis, ATCCBAA2767, read-out: Minimum inhibitory concentration (MIC), B. humptydooensis ATCC BAA-2767
[4] = test system: P. aeruginosa (ΔmexAB-oprM); test: Broth microdilution MIC in iron-depleted CAMHB (IDM); assay type: cell-based; conditions: Pseudomonas aeruginosa; iron-depleted CAMHB (IDM); […]; read-out: Minimum inhibitory concentration, P. aeruginosa ΔmexAB-oprM
P. aeruginosa ATCC 35151 = test: microbe, parasite or virus in culture; assay type: cell-based; conditions: Pseudomonas aeruginosa, ATCC35151, read-out: Minimum inhibitory concentration, P. aeruginosa ATCC 35151
A. baumannii ATCC 19606 = test: microbe, parasite or virus in culture; assay type: cell-based; conditions: Acinetobacter baumannii, ATCC19606, read-out: MIC, A. baumannii ATCC 19606
P. aeruginosa CDC-0054 = test: microbe, parasite or virus in culture; assay type: cell-based; conditions: Pseudomonas aeruginosa, CDC0054, read-out: Minimum inhibitory concentration, P. aeruginosa CDC-0054
A. baumannii CDC-0045 = test: microbe, parasite or virus in culture; assay type: cell-based; conditions: Acinetobacter baumannii, CDC0045, read-out: MIC, A. baumannii CDC-0045
P. aeruginosa ATCC 27853 = test: microbe, parasite or virus in culture; assay type: cell-based; conditions: Pseudomonas aeruginosa, ATCC27853, read-out: Minimum inhibitory concentration, P. aeruginosa ATCC 27853
A. baumannii PBP2 = A. baumannii PBP2 (Acinetobacter baumannii, UniProt D0C8Z9); test: Bocillin-FL competition binding via gel filtration, A. baumannii PBP2
Chain of A. baumannii PBP2 (D0C8Z9 whole entry): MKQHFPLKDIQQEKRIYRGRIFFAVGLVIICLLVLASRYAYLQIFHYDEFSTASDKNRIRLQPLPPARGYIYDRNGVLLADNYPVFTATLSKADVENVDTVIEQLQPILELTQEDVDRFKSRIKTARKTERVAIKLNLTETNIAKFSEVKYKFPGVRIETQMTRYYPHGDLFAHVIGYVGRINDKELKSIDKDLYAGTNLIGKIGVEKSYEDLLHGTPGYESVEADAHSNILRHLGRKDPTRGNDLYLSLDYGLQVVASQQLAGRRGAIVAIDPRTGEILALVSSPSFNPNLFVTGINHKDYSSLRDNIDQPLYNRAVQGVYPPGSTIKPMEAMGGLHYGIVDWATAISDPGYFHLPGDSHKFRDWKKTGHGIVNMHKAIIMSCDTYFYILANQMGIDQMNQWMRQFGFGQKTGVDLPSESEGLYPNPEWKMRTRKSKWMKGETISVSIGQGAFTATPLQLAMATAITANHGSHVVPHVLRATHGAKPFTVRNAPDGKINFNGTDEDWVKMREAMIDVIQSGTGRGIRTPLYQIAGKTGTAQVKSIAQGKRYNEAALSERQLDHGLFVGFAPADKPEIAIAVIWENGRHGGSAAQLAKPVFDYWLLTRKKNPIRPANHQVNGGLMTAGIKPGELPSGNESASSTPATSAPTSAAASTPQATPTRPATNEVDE
Method in brief: as §1

[5] = CDC0197, read-out: Minimum Inhibitory Concentration (MIC), N. gonorrhoeae CDC-0197
[6] = MS11, read-out: Minimum Inhibitory Concentration (MIC), N. gonorrhoeae MS11
[7] = CDC0197, read-out: Minimum Inhibitory Concentration, CDC-0197
[8] = MS11, read-out: Minimum Inhibitory Concentration, MS11

Structure (SMILES) | MIC [1] [µg/mL] | MIC (E. coli ATCC 25922) [µg/mL] | MIC (N. gonorrhoeae CDC-0197; [5]) [µg/mL] | MIC (N. gonorrhoeae MS11; [6]) [µg/mL] | MIC (K. pneumoniae 848844) [µg/mL] | MIC (E. coli 901C) [µg/mL] | EC50 (A. baumannii PBP1a) [µM] | MIC (P. aeruginosa CDC-0110) [µg/mL] | MIC [2] [µg/mL] | MIC (A. baumannii CDC-0083) [µg/mL] | MIC [3] [µg/mL] | MIC [4] [µg/mL] | MIC (P. aeruginosa ATCC 35151) [µg/mL] | MIC (A. baumannii ATCC 19606) [µg/mL] | MIC (P. aeruginosa CDC-0054) [µg/mL] | MIC (A. baumannii CDC-0045) [µg/mL] | MIC (P. aeruginosa ATCC 27853) [µg/mL] | EC50 (A. baumannii PBP2) [µM] | MIC (N. gonorrhoeae CDC-0197; [7]) [µg/mL] | MIC (N. gonorrhoeae MS11; [8]) [µg/mL]
O=C(O)c1cccc2c1OB(O)[C@@H](NC(=O)[C@H](NC(=O)c1cnc3n(c1=O)CCS3)c1ccc(P(=O)(O)O)cc1)C2 (single isomer, unassigned) [Example 197] | 32 to 64 (≈ 53.3 to 107 µM) | > 128 | 16 to 32 (≈ 26.7 to 53.3 µM) | 16 to 32 (≈ 26.7 to 53.3 µM) | > 128 | 2 to 4 (≈ 3.33 to 6.66 µM) | – | – | – | – | – | – | – | – | – | – | – | – | – | –
O=C(NCCCN1CCN(C(=O)NC(C(=O)N[C@H]2Cc3ccc(F)c(C(=O)O)c3OB2O)c2cc(F)c(O)c(O)c2Cl)C(=O)C1=O)c1ccccc1 (stereo partly drawn) [Example 202, (3R)-3-(2-(4-(3-benzamidopropyl)-2,3-dioxopiperazine-1-carboxamido)-2-(2-chloro-5-fluoro-3,4-dihydroxyphenyl)acetamido)-7-fluoro-2-hydroxy-3,4-dihydro-2H-benzo[e][1,2]oxaborinine-8-carboxylic acid] | – | – | > 64 | 16 to 32 (≈ 21.5 to 43 µM) | – | – | 10 to 50 | < 1 | 8 to 16 (≈ 10.8 to 21.5 µM) | < 1 | < 1 | < 1 | < 1 | < 1 | < 1 | < 1 | 2 to 4 (≈ 2.69 to 5.38 µM) | 50 to 250 | – | –
O=C(NCCCS(=O)(=O)N1CCN(C(=O)NC(C(=O)N[C@H]2Cc3ccc(F)c(C(=O)O)c3OB2O)c2cc(F)c(O)c(O)c2Cl)C1=O)c1ccc(O)cc1 (stereo partly drawn) [Example 269, (3R)-3-(2-(2-chloro-5-fluoro-3,4-dihydroxyphenyl)-2-(3-((3-(4-hydroxybenzamido)propyl)sulfonyl)-2-oxoimidazolidine-1-carboxamido)acetamido)-7-fluoro-2-hydroxy-3,4-dihydro-2H-benzo[e][1,2]oxaborinine-8-carboxylic acid] | – | – | – | – | – | – | < 10 | 8 to 16 (≈ 10.1 to 20.1 µM) | > 128 | 32 to 64 (≈ 40.2 to 80.4 µM) | > 128 | < 1 | < 1 | < 1 | 2 to 4 (≈ 2.51 to 5.03 µM) | < 1 | 2 to 4 (≈ 2.51 to 5.03 µM) | 10 to 50 | 16 to 32 (≈ 20.1 to 40.2 µM) | 16 to 32 (≈ 20.1 to 40.2 µM)
O=C(NCCCS(=O)(=O)N1CCN(C(=O)NC(C(=O)N[C@H]2Cc3ccc(F)c(C(=O)O)c3OB2O)c2cc(F)c(O)c(O)c2Cl)C1=O)c1ccccc1 (stereo partly drawn) [Example 268, (3R)-3-(2-(3-((3-benzamidopropyl)sulfonyl)-2-oxoimidazolidine-1-carboxamido)-2-(2-chloro-5-fluoro-3,4-dihydroxyphenyl)acetamido)-7-fluoro-2-hydroxy-3,4-dihydro-2H-benzo[e][1,2]oxaborinine-8-carboxylic acid] | – | – | – | – | – | – | 10 to 50 | 8 to 16 (≈ 10.3 to 20.5 µM) | > 128 | 2 to 4 (≈ 2.56 to 5.13 µM) | > 128 | < 1 | < 1 | < 1 | 8 to 16 (≈ 10.3 to 20.5 µM) | 2 to 4 (≈ 2.56 to 5.13 µM) | 8 to 16 (≈ 10.3 to 20.5 µM) | 10 to 50 | 16 to 32 (≈ 20.5 to 41 µM) | 16 to 32 (≈ 20.5 to 41 µM)
O=C(O)c1cccc2c1OB(O)[C@@H](NC(=O)[C@@H](NC(=O)c1cnc3n(c1=O)CCS3)c1ccc(P(=O)(O)O)cc1)C2 (single isomer, unassigned) [Example 196] | > 128 | > 128 | 16 to 32 (≈ 26.7 to 53.3 µM) | 16 to 32 (≈ 26.7 to 53.3 µM) | > 128 | 32 to 64 (≈ 53.3 to 107 µM) | – | – | – | – | – | – | – | – | – | – | – | – | – | –
O=C(NCCCS(=O)(=O)N1CCN(C(=O)N[C@@H](C(=O)N[C@H]2Cc3ccc(F)c(C(=O)O)c3OB2O)c2cc(F)c(O)c(O)c2Cl)C1=O)c1cccc(O)c1 [Example 271, (R)-3-((R)-2-(2-chloro-5-fluoro-3,4-dihydroxyphenyl)-2-(3-((3-(3-hydroxybenzamido)propyl)sulfonyl)-2-oxoimidazolidine-1-carboxamido)acetamido)-7-fluoro-2-hydroxy-3,4-dihydro-2H-benzo[e][1,2]oxaborinine-8-carboxylic acid] | – | – | – | – | – | – | < 10 | 8 to 16 (≈ 10.1 to 20.1 µM) | 8 to 16 (≈ 10.1 to 20.1 µM) | < 1 | 2 to 4 (≈ 2.51 to 5.03 µM) | < 1 | < 1 | < 1 | 2 to 4 (≈ 2.51 to 5.03 µM) | < 1 | 2 to 4 (≈ 2.51 to 5.03 µM) | < 10 | 16 to 32 (≈ 20.1 to 40.2 µM) | 16 to 32 (≈ 20.1 to 40.2 µM)
O=C(NCCN1CCN(C(=O)NC(C(=O)N[C@H]2Cc3ccc(F)c(C(=O)O)c3OB2O)c2cc(F)c(O)c(O)c2Cl)C(=O)C1=O)Nc1cccc(O)c1 (stereo partly drawn) [Example 220, (3R)-3-(2-(2-chloro-5-fluoro-3,4-dihydroxyphenyl)-2-(4-(2-(3-(3-hydroxyphenyl)ureido)ethyl)-2,3-dioxopiperazine-1-carboxamido)acetamido)-7-fluoro-2-hydroxy-3,4-dihydro-2H-benzo[e][1,2]oxaborinine-8-carboxylic acid] | – | – | > 64 | 16 to 32 (≈ 21 to 42.1 µM) | – | – | < 10 | < 1 | 8 to 16 (≈ 10.5 to 21 µM) | 8 to 16 (≈ 10.5 to 21 µM) | 32 to 64 (≈ 42.1 to 84.1 µM) | < 1 | < 1 | < 1 | 8 to 16 (≈ 10.5 to 21 µM) | 2 to 4 (≈ 2.63 to 5.26 µM) | 2 to 4 (≈ 2.63 to 5.26 µM) | < 10 | – | –
CCN1CCN(C(=O)NC(C(=O)N[C@H]2Cc3cccc(C(=O)O)c3OB2O)c2ccc(P(=O)(O)O)c(F)c2O)C(=O)C1=O (stereo partly drawn) [Example 198, (3R)-3-(2-(4-ethyl-2,3-dioxopiperazine-1-carboxamido)-2-(3-fluoro-2-hydroxy-4-phosphonophenyl)acetamido)-2-hydroxy-3,4-dihydro-2H-benzo[e][1,2]oxaborinine-8-carboxylic acid] | > 128 | > 128 | < 1 | < 1 | > 128 | < 1 | – | – | – | – | – | – | – | – | – | – | – | – | – | –
